SMILES strings stand for the structures. A value given as a limit tells only on which side of the number the result lay.

Results on eleven compounds are retold here after patent US8754069B2, “Betulinic acid derivatives with antiviral activity” (priority 2011, dated 2014).

The experiment relates to recombinant NL4-3 virus (NLRluc, Renilla luciferase in nef, Gag P373S) in MT-2 cells. The experiment can be described thus: HIV Cell Culture Assay (luciferase reporter virus in MT-2 cells). It is filed as cell-based. The following applies: NL43, 96 h, read-out: 10% FBS (EC50, uM). The protocol: HIV Cell Culture Assay—MT-2 cells and 293T cells were obtained from the NIH AIDS Research and Reference Reagent Program. MT-2 cells were propagated in RPMI 1640 media supplemented with 10% heat inactivated fetal bovine serum, […]. The 293T cells were propagated in DMEM media supplemented with 10% heat inactivated fetal bovine serum (FBS), 100 units/ml penicillin G and 100 μg/ml streptomycin. The proviral DNA clone of NL4-3 was obtained from the NIH AIDS Research and Reference Reagent Program. A recombinant NL4-3 virus, in which a section of the nef gene from NL4-3 was replaced with the Renilla luciferase gene, was used as a reference virus. In addition, residue Gag P373 was converted to P373S. Briefly, the recombinant virus was prepared by transfection of the altered proviral clone of NL4-3. Transfections were performed in 293T cells using LipofectAMINE PLUS from Invitrogen (Carlsbad, Calif.), according to manufacturer's instruction. The virus was titered in MT-2 cells using luciferase enzyme activity as a marker. Luciferase was quantitated using the Dual Luciferase kit from Promega (Madison, Wis.), with modifications to the manufacturer's protocol. The diluted Passive Lysis solution was pre-mixed with the re-suspended Luciferase Assay Reagent and the re-suspended Stop & Glo Substrate (2:1:1 ratio). Fifty (50) μL of the mixture was added to each aspirated well on assay plates and luciferase activity was measured immediately on a Wallac TriLux (Perkin-Elmer). Antiviral activities of inhibitors toward the recombinant virus were quantified by measuring luciferase activity in cells infected for 4-days with NLRluc recombinants in the presence serial dilutions of the inhibitor. Table 1 is the key for the data in Table 2. Results
Background: Reporter assays use an easily measured gene product as a stand-in for the process of interest.
With `C=C(C)[C@@H]1CC[C@]2(NCCN3CCS(=O)(=O)CC3)CC[C@]3(C)[C@H](CC[C@@H]4[C@@]5(C)CC[C@H](OC(=O)C(C)(C)CC(=O)O)C(C)(C)[C@@H]5CC[C@]43C)[C@@H]12` [Example 1, 4-(((1R,3aS,5aR,5bR,7aR,9S,11aR,13aR,13bR)-3a-((2-(1,1-dioxido-4-thiomorpholinyl)ethyl)amino)-1-isopropenyl-5a,5b,8,8,11a-pentamethylicosahydro-1H-cyclopenta[a]chrysen-9-yl)oxy)-3,3-dimethyl-4-oxobutanoic acid], the EC50 (usually the concentration that produces a half-maximal response) is less than 0.1 µM.
`C=C(C)[C@@H]1CC[C@]2(NCCN3CCS(=O)(=O)CC3)CC[C@]3(C)[C@H](CC[C@@H]4[C@@]5(C)CC[C@H](OC(=O)CC(C)(C)C(=O)O)C(C)(C)[C@@H]5CC[C@]43C)[C@@H]12` [Example 2, 4-(((1R,3aS,5aR,5bR,7aR,9S,11aR,13aR,13bR)-3a-((2-(1,1-dioxido-4-thiomorpholinyl)ethyl)amino)-1-isopropenyl-5a,5b,8,8,11a-pentamethylicosahydro-1H-cyclopenta[a]chrysen-9-yl)oxy)-2,2-dimethyl-4-oxobutanoic acid]: the EC50 was less than 0.1 µM.
In the case of `C=C(C)[C@@H]1CC[C@]2(NCCN3CCS(=O)(=O)CC3)CC[C@]3(C)[C@H](CC[C@@H]4[C@@]5(C)CC[C@H](OC(=O)CC(C)(C)CC(=O)O)C(C)(C)[C@@H]5CC[C@]43C)[C@@H]12` [Example 3, 5-(((1R,3aS,5aR,5bR,7aR,9aR,9S,11aR,3aR,13bR)-3a-((2-(1,1-dioxido-4-thiomorpholinyl)ethyl)amino)-1-isopropenyl-5a,5b,8,8,11a-pentamethylicosahydro-1H-cyclopenta[a]chrysen-9-yl)oxy)-3,3-dimethyl-5-oxopentanoic acid], the EC50 was less than 0.1 µM.
For `C=C(C)[C@@H]1CC[C@]2(NCCN3CCOCC3)CC[C@]3(C)[C@H](CC[C@@H]4[C@@]5(C)CC[C@H](OC(=O)C(C)(C)CC(=O)O)C(C)(C)[C@@H]5CC[C@]43C)[C@@H]12` [Example 4, 3,3-dimethyl-4-oxo-4-((1R,3aS,5aR,5bR,7aR,9S,11aR,13aR,13bR)-5a,5b,8,8,11a-pentamethyl-3a-(2-morpholinoethylamino)-1-(prop-1-en-2-yl)icosahydro-1H-cyclopenta[a]chrysen-9-yloxy)butanoic acid], the EC50 was less than 0.1 µM.
With `C=C(C)[C@@H]1CC[C@]2(NCCN3CCOCC3)CC[C@]3(C)[C@H](CC[C@@H]4[C@@]5(C)CC[C@H](OC(=O)CC(C)(C)C(=O)O)C(C)(C)[C@@H]5CC[C@]43C)[C@@H]12` [Example 5, 2,2-dimethyl-4-oxo-4-((1R,3aS,5aR,5bR,7aR,9S,11aR,13aR,13bR)-5a,5b,8,8,11a-pentamethyl-3a-(2-morpholinoethylamino)-1-(prop-1-en-2-yl)icosahydro-1H-cyclopenta[a]chrysen-9-yloxy)butanoic acid] the figure was less than 0.1 µM.
`CC(C)[C@@H]1CC[C@]2(NCCN3CCS(=O)(=O)CC3)CC[C@]3(C)[C@H](CC[C@@H]4[C@@]5(C)CC[C@H](OC(=O)CC(C)(C)C(=O)O)C(C)(C)[C@@H]5CC[C@]43C)[C@@H]12` [Example 6, 4-(((1S,3aS,5aR,5bR,7aR,9S,11aR,13aR,13bR)-3a-((2-(1,1-dioxido-4-thiomorpholinyl)ethyl)amino)-1-isopropyl-5a,5b,8,8,11a-pentamethylicosahydro-1H-cyclopenta[a]chrysen-9-yl)oxy)-2,2-dimethyl-4-oxobutanoic acid]: the EC50 is less than 0.1 µM.
Take `CC(C)[C@@H]1CC[C@]2(NCCN3CCS(=O)(=O)CC3)CC[C@]3(C)[C@H](CC[C@@H]4[C@@]5(C)CC[C@H](OC(=O)CC(C)(C)CC(=O)O)C(C)(C)[C@@H]5CC[C@]43C)[C@@H]12` [Example 7, 5-(((1S,3aS,5aR,5bR,7aR,9aR,9S,11aR,3aR,13bR)-3a-((2-(1,1-dioxido-4-thiomorpholinyl)ethyl)amino)-1-isopropyl-5a,5b,8,8,11a-pentamethylicosahydro-1H-cyclopenta[a]chrysen-9-yl)oxy)-3,3-dimethyl-5-oxopentanoic acid]: the EC50 is less than 0.1 µM.
As for `C=C(C)[C@@H]1CC[C@]2(NCCN3CCC(S(C)(=O)=O)CC3)CC[C@]3(C)[C@H](CC[C@@H]4[C@@]5(C)CC[C@H](OC(=O)C(C)(C)CC(=O)O)C(C)(C)[C@@H]5CC[C@]43C)[C@@H]12` [Example 8, 3,3-dimethyl-4-oxo-4-(((1R,3aS,5aR,5bR,7aR,9S,11aR,13aR,13bR)-5a,5b,8,8,11a-pentamethyl-3a-((2-(4-(methylsulfonyl)piperidin-1-yl)ethyl)amino)-1-(prop-1-en-2-yl)icosahydro-1H-cyclopenta[a]chrysen-9-yl)oxy)butanoic acid], the EC50 is less than 0.1 µM.
As for `C=C(C)[C@@H]1CC[C@]2(NCCN3CCC(S(C)(=O)=O)CC3)CC[C@]3(C)[C@H](CCC4[C@@]5(C)CC[C@H](OC(=O)CC(C)(C)C(=O)O)C(C)(C)[C@@H]5CC[C@]43C)[C@@H]12` (stereo partly drawn) [Example 9, 2,2-dimethyl-4-oxo-4-(((1R,3aS,5aR,5bR,7aR,9S,11aR,13aR,13bR)-5a,5b,8,8,11a-pentamethyl-3a-((2-(4-(methylsulfonyl)piperidin-1-yl)ethyl)amino)-1-(prop-1-en-2-yl)icosahydro-1H-cyclopenta[a]chrysen-9-yl)oxy)butanoic acid], the figure is less than 0.1 µM; as for `C=C(C)[C@@H]1CC[C@]2(NCCN(C)C)CC[C@]3(C)[C@H](CC[C@@H]4[C@@]5(C)CC[C@H](OC(=O)CC(C)(C)C(=O)O)C(C)(C)[C@@H]5CC[C@]43C)[C@@H]12` [Example 10, 4-(((1R,3aS,5aR,5bR,7aR,9S,11aR,13aR,13bR)-3a-((2-(dimethylamino)ethyl)amino)-5a,5b,8,8,11a-pentamethyl-1-(prop-1-en-2-yl)icosahydro-1H-cyclopenta[a]chrysen-9-yl)oxy)-2,2-dimethyl-4-oxobutanoic acid], less than 0.1 µM; as for `C=C(C)[C@@H]1CC[C@]2(NCCN3CCN(S(C)(=O)=O)CC3)CC[C@]3(C)[C@H](CC[C@@H]4[C@@]5(C)CC[C@H](OC(=O)CC(C)(C)C(=O)O)C(C)(C)[C@@H]5CC[C@]43C)[C@@H]12` [Example 11, 2,2-dimethyl-4-oxo-4-(((1R,3aS,5aR,5bR,7aR,9S,11aR,11bR,13aR,13bR)-5a,5b,8,8,11a-pentamethyl-3a-((2-(4-(methylsulfonyl)piperazin-1-yl)ethyl)amino)-1-(prop-1-en-2-yl)icosahydro-1H-cyclopenta[a]chrysen-9-yl)oxy)butanoic acid], less than 0.1 µM.
